Measured values reported in patent US20200055817A1 (AbbVie Deutschland GmbH & Co. KG, priority 2016, published 2020).
Counter-ions that a name gives are not always drawn.

Key:
Assay type in all cases: cell-based
[1] = target: T1, human EDG8 (S1PR5) receptor (Homo sapiens, UniProt Q9H228); experiment: Aequorin assay, agonist potency, CHO-A21-EDG8#12 cells; settings: agonist mode, aequorin luminescence; read-out: S1P5 EC50 range #
T1 construct: carries the transgenes human EDG8 (S1PR5) receptor (Acession number NP_110387.1); expressed in transfected cells; host or cells: CHO-A21-EDG8#12 (CHO clone co-expressing mitochondrial aequorin and chimaeric Gaqi5)
T1 sequence (Q9H228 whole entry): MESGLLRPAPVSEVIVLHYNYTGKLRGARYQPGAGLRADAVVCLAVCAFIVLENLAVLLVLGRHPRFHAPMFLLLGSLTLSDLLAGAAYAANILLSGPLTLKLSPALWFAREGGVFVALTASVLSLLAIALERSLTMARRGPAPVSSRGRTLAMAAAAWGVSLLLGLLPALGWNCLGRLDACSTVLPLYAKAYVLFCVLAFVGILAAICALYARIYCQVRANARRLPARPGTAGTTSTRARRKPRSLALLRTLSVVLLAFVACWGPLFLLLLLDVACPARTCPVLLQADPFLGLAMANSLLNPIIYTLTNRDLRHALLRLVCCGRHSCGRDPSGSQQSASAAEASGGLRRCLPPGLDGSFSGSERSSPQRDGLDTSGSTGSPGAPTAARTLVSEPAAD
How it was run: (§1)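 CHO cells coexpressing receptor, mitochondrial aequorin and Gαqi5 (S1P3 pool: GNA16) were loaded overnight at RT with 5 μM coelenterazine h in 0.1% fatty-acid-free BSA buffer. Cells were injected onto compound, luminescence recorded 90 s and integrated, normalised to digitonin or 20 μM ATP; sigmoidal fit.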

[2] = target: T2, human EDG1 (S1PR1) receptor (Homo sapiens, UniProt P21453); experiment: Aequorin assay, agonist potency, CHO-A21-Edg1#17 cells; settings: agonist mode, aequorin luminescence; read-out: S1P1 EC50
T2 construct: expressed in transfected cells; host or cells: CHO-A21-Edg1#17 (CHO clone co-expressing mitochondrial aequorin and chimaeric Gaqi5)
T2 sequence (P21453 whole entry): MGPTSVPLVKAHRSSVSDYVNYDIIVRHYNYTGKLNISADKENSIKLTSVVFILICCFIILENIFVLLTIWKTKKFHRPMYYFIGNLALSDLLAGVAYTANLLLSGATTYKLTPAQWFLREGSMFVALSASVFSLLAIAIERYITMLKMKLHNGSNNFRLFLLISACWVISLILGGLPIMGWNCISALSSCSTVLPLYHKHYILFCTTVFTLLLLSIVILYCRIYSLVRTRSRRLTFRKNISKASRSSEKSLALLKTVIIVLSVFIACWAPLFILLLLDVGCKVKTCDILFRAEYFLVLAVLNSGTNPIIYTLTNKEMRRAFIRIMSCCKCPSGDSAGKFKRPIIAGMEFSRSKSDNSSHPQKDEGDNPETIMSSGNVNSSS
How it was run: as §1

[3] = target: T3, human EDG3 (S1PR3) receptor (Homo sapiens, UniProt Q99500); experiment: Aequorin assay, agonist potency, CHO-A2-S1P3 Mix cells; settings: agonist mode, aequorin luminescence
T3 construct: expressed in transfected cells; host or cells: CHO-A2-S1P3 Mix (CHO cell pool co-expressing mitochondrial aequorin and GNA16)
T3 sequence (Q99500 whole entry): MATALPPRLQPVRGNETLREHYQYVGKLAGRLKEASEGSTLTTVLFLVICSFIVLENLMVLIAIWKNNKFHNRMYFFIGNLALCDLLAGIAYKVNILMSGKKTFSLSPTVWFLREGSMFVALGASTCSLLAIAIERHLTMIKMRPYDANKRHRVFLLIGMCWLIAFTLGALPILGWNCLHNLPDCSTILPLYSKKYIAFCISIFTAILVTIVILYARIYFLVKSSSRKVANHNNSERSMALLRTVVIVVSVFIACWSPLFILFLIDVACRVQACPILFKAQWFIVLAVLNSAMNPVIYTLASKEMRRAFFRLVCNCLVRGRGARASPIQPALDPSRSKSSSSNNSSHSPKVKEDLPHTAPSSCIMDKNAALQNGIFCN
Procedure: Agonistic activity was measured as described below.
Cell clone CHO-A21-Edg1#17 carries the transgenes human EDG1 (S1PR1) receptor (Accession number NP_001391.2), mitochondrially targeted Aequorin (active part corresponds to accession number 1SL8_A) and chimaeric Gaqi5=Gaq modified with the 5 C-terminal amino-acids replaced with those of the Gai protein (DCGLF). CHO-A2-S1P3 Mix is a cell pool ectopically expressing human EDG3 (S1PR3) receptor (Accession number NP_005217.2) mitochondrially targeted Aequorin (active part has a sequence similar to accession number AY601106.1) and GNA16 (Accession number NP_002059.3). Cell clone CHO-A21-EDG8#12 carries the transgenes human EDG8 (S1PR5) receptor (Acession number NP_110387.1), mitochondrially expressed Aequorin (active part corresponds to accession number 1SL8_A) and chimaeric Gaqi5 (Gaq modified to present the 5 last amino-acids of the Gai protein “DCGLF”; see above). Cells are grown to mid-log phase in culture medium (HAM's F12, 10% FBS, 100 IU/mL penicillin, 100 μg/mL streptomycin, 250 μg/mL Zeocin, 400 μg/mL G418). 18 hours prior to frozen cells preparation, the medium is changed to remove the antibiotics.
18 hours prior to the test, vials of frozen cells are quickly thawed in a 37° C. water bath, cells are recovered by centrifugation and resuspended in assay buffer (DMEM/HAM's F12 with HEPES, without phenol red+0.1% fatty acid-free BSA). Cells are gently agitated in suspension overnight at RT in presence of 5 μM of Coelenterazine h (Molecular Probes). On the day of the test, cells are diluted to their final working concentrations in assay buffer and agitated in suspension for 1 h at RT. Cells are then placed in the luminescence reader (Hamamatsu Functional Drug Screening System 6000, FDSS6000). During cells incubation, compounds are prepared in 100% DMSO, and subsequently diluted in assay buffer. Compounds are then dispensed in the assay plate (black, clear-bottom, 384-well plate). After binding of agonists to the human S1P receptor the intracellular calcium concentration increases and binding of calcium to the Aequorin/Coelenterazine complex leads to an oxidation reaction of coelenterazine, which results in the production of Aequorin, coelenteramide, CO2 and light (Dmax 469 nm). The luminescent response is dependent on the agonist concentration. For agonist testing, 30 μL of cell suspension are injected on 30 μL of test compound or reference agonist in the assay plate. The resulting emission of light is recorded for 90 seconds using the FDSS6000. Dose response curves with the reference compounds are performed before testing the compounds. S1P is the reference agonist and JTE-013 the reference antagonist for S1P2.
Luminescence data are integrated over the reading interval for agonist and antagonist modes. To standardize the emission of recorded light (determination of the “100% signal”) across plates and across different experiments, some of the wells contain 100 μM digitonin or a saturating concentration of ATP (20 μM). Plates also contain the reference agonist at a concentration equivalent to the EC80 obtained during the test validation and the EC100. Dose-response data from test compounds were analyzed with XLfit (IDBS) software using nonlinear regression applied to a sigmoidal dose-response model and the following equation: […]

[4] = target: T4, S1P4 (Homo sapiens, UniProt O95977); experiment: Aequorin assay, agonist potency, S1P4; settings: agonist mode, aequorin luminescence
T4 sequence (O95977 1-384): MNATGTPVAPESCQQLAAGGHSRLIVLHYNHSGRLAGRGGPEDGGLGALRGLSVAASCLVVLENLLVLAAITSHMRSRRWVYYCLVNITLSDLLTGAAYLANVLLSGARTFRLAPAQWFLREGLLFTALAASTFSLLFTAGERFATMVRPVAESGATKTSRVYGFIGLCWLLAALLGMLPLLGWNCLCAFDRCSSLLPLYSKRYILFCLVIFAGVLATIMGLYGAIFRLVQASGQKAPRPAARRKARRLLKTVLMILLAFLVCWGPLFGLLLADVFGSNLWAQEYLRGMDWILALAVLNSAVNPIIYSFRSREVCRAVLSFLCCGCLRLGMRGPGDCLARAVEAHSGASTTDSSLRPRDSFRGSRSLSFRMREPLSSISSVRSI
How it was run: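 Aequorin luminescence read over 90 s after adding coelenterazine h–loaded cells (5 μM, overnight, RT) to test compound in phenol red-free DMEM/F12 buffer containing 0.1% fatty acid-free BSA. Responses integrated, scaled to the 100% signal from 100 μM digitonin or 20 μM ATP, and fitted to a sigmoidal dose-response model.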

Row | SMILES | EC50 [1] [nM] | EC50 [2] [nM] | EC50 [3] [nM] | EC50 [4] [nM]
1 | O=C(O)CN1CC2(Cc3ccc(OCc4c(Cl)cccc4C4CC4)cc3C2)C1 [Example 15, 2-(5′-((2-chloro-6-cyclopropylbenzyl)oxy)-1′,3′-dihydrospiro[azetidine-3,2′-inden]-1-yl)acetic acid] | ≤ 10 | > 1000 | > 1000 | < 1000
2 | O=C(O)C1(CN2CC3(Cc4ccc(OCCc5c(Cl)cccc5Cl)cc4C3)C2)CC1 [Example 59, 1-((5′-(2,6-dichlorophenethoxy)-1′,3′-dihydrospiro[azetidine-3,2′-inden]-1-yl)methyl)cyclopropanecarboxylic acid] | ≤ 10 | > 1000 | > 1000 | < 1000
3 | O=C(O)CN1CC2(Cc3ccc(OCc4c(Cl)cccc4Cl)cc3C2)C1 [Example 109, 2-(5′-((2,6-dichlorobenzyl)oxy)-1′,3′-dihydrospiro[azetidine-3,2′-inden]-1-yl)acetic acid] | ≤ 10 | > 1000 | > 1000 | < 1000
4 | CCc1cccc(Cl)c1COc1ccc2c(c1)CC1(C2)CN(CC(=O)O)C1 [Example 24, 2,2,2-trifluoroacetic acid compound with 2-(5′-((2-chloro-6-ethylbenzyl)oxy)-1′,3′-dihydrospiro[azetidine-3,2′-inden]-1-yl)acetic acid (1:1)] | ≤ 10 | > 1000 | > 1000 | < 1000
5 | CCc1cccc(Cl)c1COc1ccc2c(c1)CC1(CCN(CC(=O)O)CC1)C2 [Example 161, 2-(5-((2-chloro-6-ethylbenzyl)oxy)-1,3-dihydrospiro[indene-2,4′-piperidin]-1′-yl)acetic acid hydrochloride] | ≤ 10 | > 1000 | > 1000 | < 1000
6 | O=C(O)C1(CN2CC3(Cc4ccc(-c5ccc(OCc6ccc(Cl)cc6)cc5)cc4C3)C2)CC1 [Example 108, 1-((5′-(4-((4-chlorobenzyl)oxy)phenyl)-1′,3′-dihydrospiro[azetidine-3,2′-inden]-1-yl)methyl)cyclopropanecarboxylic acid] | 10 to 100 | > 1000 | > 1000 | > 1000
7 | O=C(O)C1(CN2CC3(Cc4ccc(OCc5c(Cl)cccc5Cl)cc4C3)C2)CC1 [Example 46, 1-((5′-((2,6-dichlorobenzyl)oxy)-1′,3′-dihydrospiro[azetidine-3,2′-inden]-1-yl)methyl)cyclopropanecarboxylic acid] | ≤ 10 | > 1000 | > 1000 | < 1000
8 | O=C(O)C1(CN2CC3(Cc4ccc(OCc5c(Cl)cccc5C5CC5)cc4C3)C2)CC1 [Example 44, 1-((5′-((2-chloro-6-cyclopropylbenzyl)oxy)-1′,3′-dihydrospiro[azetidine-3,2′-inden]-1-yl)methyl)cyclopropanecarboxylic acid compound with acetic acid (1:1)] | ≤ 10 | > 1000 | > 1000 | < 1000
9 | O=C(O)CN1CC2(Cc3ccc(OCc4c(F)cccc4C4CC4)cc3C2)C1 [Example 110, 2-(5′-((2-cyclopropyl-6-fluorobenzyl)oxy)-1′,3′-dihydrospiro[azetidine-3,2′-inden]-1-yl)acetic acid] | ≤ 10 | > 1000 | > 1000 | < 1000
10 | Cc1cccc(C)c1COc1ccc2c(c1)CC1(C2)CN(CC2(C(=O)O)CC2)C1 [Example 39, 1-((5′-((2,6-dimethylbenzyl)oxy)-1′,3′-dihydrospiro[azetidine-3,2′-inden]-1-yl)methyl)cyclopropanecarboxylic acid compound with 2,2,2-trifluoroacetic acid (1:1)] | ≤ 10 | > 1000 | > 1000 | < 1000
11 | CCc1cccc(Cl)c1COc1ccc2c(c1)CC1(C2)CN(CC(C)CC(=O)O)C1 (stereo not shown) [Example 64, 4-(5′-((2-chloro-6-ethylbenzyl)oxy)-1′,3′-dihydrospiro[azetidine-3,2′-inden]-1-yl)-3-methylbutanoic acid] | ≤ 10 | – | > 1000 | < 1000

Now from value to compound:

Row | EC50 [1] [nM] | EC50 [2] [nM] | EC50 [3] [nM] | EC50 [4] [nM] | SMILES
12 | 100 to 1000 | > 1000 | > 1000 | < 1000 | O=C(O)CN1CC2(Cc3ccc(OCc4ccccc4)cc3C2)C1 [Example 8, 2-(5′-(benzyloxy)-1′,3′-dihydrospiro[azetidine-3,2′-inden]-1-yl)acetic acid]
13 | ≤ 10 | > 1000 | > 1000 | < 1000 | O=C(O)CN1CC2(Cc3ccc(OCc4cccc(Cl)c4)cc3C2)C1 [Example 16, 2-(5′-((3-chlorobenzyl)oxy)-1′,3′-dihydrospiro[azetidine-3,2′-inden]-1-yl)acetic acid compound with acetic acid (1:1)]
14 | 10 to 100 | > 1000 | > 1000 | < 1000 | O=C(O)C1(CN2CC3(Cc4ccc(OCc5cccc(Cl)c5)cc4C3)C2)CC1 [Example 45, 1-((5′-((3-chlorobenzyl)oxy)-1′,3′-dihydrospiro[azetidine-3,2′-inden]-1-yl)methyl)cyclopropanecarboxylic acid]
15 | ≤ 10 | > 1000 | > 1000 | < 1000 | O=C(O)CN1CC2(Cc3ccc(OCc4ccccc4C4CC4)cc3C2)C1 [Example 111, 2-(5′-((2-cyclopropylbenzyl)oxy)-1′,3′-dihydrospiro[azetidine-3,2′-inden]-1-yl)acetic acid]
16 | 1000 to 10000 | > 1000 | > 1000 | < 1000 | O=C(O)CCN1CC2(Cc3ccc(OCc4ccccc4)cc3C2)C1 [Example 6, 3-(5′-(benzyloxy)-1′,3′-dihydrospiro[azetidine-3,2′-inden]-1-yl)propanoic acid hydrochloride]
17 | 10 to 100 | > 1000 | > 1000 | < 1000 | O=C(O)CN1CC2(Cc3ccc(OCc4ccc(Cl)c(Cl)c4)cc3C2)C1 [Example 25, 2,2,2-trifluoroacetic acid compound with 2-(5′-((3,4-dichlorobenzyl)oxy)-1′,3′-dihydrospiro[azetidine-3,2′-inden]-1-yl)acetic acid (1:1)]
